The test concerns the target T1, human GR (Homo sapiens, UniProt P04150).
T1 sequence (P04150 1-777): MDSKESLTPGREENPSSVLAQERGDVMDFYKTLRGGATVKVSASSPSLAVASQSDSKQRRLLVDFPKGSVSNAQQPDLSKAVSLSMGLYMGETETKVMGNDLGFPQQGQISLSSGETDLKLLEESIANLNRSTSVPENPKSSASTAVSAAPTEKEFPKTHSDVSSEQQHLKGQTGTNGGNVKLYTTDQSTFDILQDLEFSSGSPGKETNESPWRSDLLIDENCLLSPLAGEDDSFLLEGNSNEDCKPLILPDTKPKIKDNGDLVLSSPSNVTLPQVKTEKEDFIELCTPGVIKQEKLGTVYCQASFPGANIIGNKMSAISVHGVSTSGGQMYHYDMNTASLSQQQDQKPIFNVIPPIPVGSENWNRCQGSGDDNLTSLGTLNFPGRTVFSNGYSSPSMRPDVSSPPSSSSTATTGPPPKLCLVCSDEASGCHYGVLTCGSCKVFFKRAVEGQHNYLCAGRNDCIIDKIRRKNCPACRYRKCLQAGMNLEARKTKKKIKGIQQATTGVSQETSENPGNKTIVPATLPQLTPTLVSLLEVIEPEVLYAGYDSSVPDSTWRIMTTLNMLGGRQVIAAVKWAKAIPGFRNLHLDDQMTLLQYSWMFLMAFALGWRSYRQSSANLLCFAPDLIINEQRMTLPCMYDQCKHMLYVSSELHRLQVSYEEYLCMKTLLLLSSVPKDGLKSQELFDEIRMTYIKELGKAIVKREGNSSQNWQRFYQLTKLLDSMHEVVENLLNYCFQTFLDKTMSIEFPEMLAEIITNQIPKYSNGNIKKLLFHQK
Put plainly: Trans-Activation Modulation of Glucocorticoid Receptor (GRAMMER), MMTV-LUC reporter, agonist mode. The test is classed as cell-based. Details: endogenous in cells. The note with it: for Emax: A549, A549 cells, maximum activity, read-out: Transactivation A549 Cells GRAMMER Emax; for EC50: A549 cells, inflection point, read-out: Transactivation A549 Cells GRAMMER IP. In outline: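 Readout is luciferase from a modified MMTV LTR promoter after 24 h compound exposure alongside 10 nM dexamethasone (100% activity reference), DMSO ≤1%.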

The results in this text go back to patent US8299048B2, “Hexahydrocyclopentyl[f]indazole sulfonamides and derivatives thereof as selective glucocorticoid receptor modulators” (Merck Sharp & Dohme Corp., priority 2008, dated 2012).

Molecules are shown by their SMILES.

On to `COC(=O)c1ccccc1CS(=O)(=O)N(C[C@H]1CCC2=Cc3c(cnn3-c3ccc(F)cc3)C[C@@]21C)C[C@H](C)O` [Example 181, methyl 2-[({{[(4αR,5S)-1-(4-fluorophenyl)-4α-methyl-1,4,4α,5,6,7-hexahydrocyclopenta[f]indazol-5-yl]methyl}[(2S)-2-hydroxypropyl]amino}sulfonyl)methyl]benzoate], for which the Emax (commonly the maximal effect, on the per cent scale that the assay sets) was 54.6% and the EC50 came out at 0.364 µM.
The like results for `C[C@@H](O)CN(C[C@H]1CCC2=Cc3c(cnn3-c3ccc(F)cc3)C[C@@]21C)S(=O)(=O)Cc1ccccc1C(=O)O` [Example 182, 2-[({{[(4αR,5S)-1-(4-fluorophenyl)-4α-methyl-1,4,4α,5,6,7-hexahydrocyclopenta[f]indazol-5-yl]methyl}[(2R)-2-hydroxypropyl]amino}sulfonyl)methyl]benzoic acid] were, in that order, 8% and 4.76 µM.
The like results for `C[C@H](O)CN(C[C@H]1CCC2=Cc3c(cnn3-c3ccc(F)cc3)C[C@@]21C)S(=O)(=O)Cc1ccccc1C(=O)O` [Example 183, 2-[({{[(4αR,5S)-1-(4-fluorophenyl)-4α-methyl-1,4,4α,5,6,7-hexahydrocyclopenta[f]indazol-5-yl]methyl}[(2S)-2-hydroxypropyl]amino}sulfonyl)methyl]benzoic acid] were, in that order, 15% and 4.5 µM.
The like results for `C[C@@H](O)CN(C[C@H]1CCC2=Cc3c(cnn3-c3ccc(F)cc3)C[C@@]21C)S(=O)(=O)Cc1ccccc1C(N)=O` [Example 184, 2-[({{[(4αR,5S)-1-(4-fluorophenyl)-4α-methyl-1,4,4α,5,6,7-hexahydrocyclopenta[f]indazol-5-yl]methyl}[(2R)-2-hydroxypropyl]amino}sulfonyl)methyl]benzamide] were, in that order, 21.6% and 0.421 µM.
`C[C@H](O)CN(C[C@H]1CCC2=Cc3c(cnn3-c3ccc(F)cc3)C[C@@]21C)S(=O)(=O)Cc1ccccc1C(N)=O` [Example 185, 2-[({{[(4αR,5S)-1-(4-fluorophenyl)-4α-methyl-1,4,4α,5,6,7-hexahydrocyclopenta[f]indazol-5-yl]methyl}[(2S)-2-hydroxypropyl]amino}sulfonyl)methyl]benzamide]: the Emax is 19.9% and the EC50 came out at 0.25 µM.
The like results for `COC(=O)c1ccccc1S(=O)(=O)N(C[C@H]1CCC2=Cc3c(cnn3-c3ccc(F)cc3)C[C@@]21C)C[C@@H](C)O` [Example 186, methyl 2-({{[(4αR,5S)-1-(4-fluorophenyl)-4α-methyl-1,4,4α,5,6,7-hexahydrocyclopenta[f]indazol-5-yl]methyl}[(2R)-2-hydroxypropyl]amino}sulfonyl)benzoate] were, in that order, 35.8% and 0.509 µM.
The like results for `COC(=O)c1ccccc1S(=O)(=O)N(C[C@H]1CCC2=Cc3c(cnn3-c3ccc(F)cc3)C[C@@]21C)C[C@H](C)O` [Example 187, methyl 2-({{[(4αR,5S)-1-(4-fluorophenyl)-4α-methyl-1,4,4α,5,6,7-hexahydrocyclopenta[f]indazol-5-yl]methyl}[(2S)-2-hydroxypropyl]amino}sulfonyl)benzoate] were, in that order, 35.8% and 0.357 µM.
Regarding `COC(=O)c1ccccc1CS(=O)(=O)N(CCc1ccccc1F)C[C@H]1CCC2=Cc3c(cnn3-c3ccc(F)cc3)C[C@@]21C` [Example 188, methyl 2-{[([2-(2-fluorophenyl)ethyl]{[(4αR,5S)-1-(4-fluorophenyl)-4α-methyl-1,4,4α,5,6,7-hexahydrocyclopenta[f]indazol-5-yl]methyl}amino)sulfonyl]methyl}benzoate], the Emax worked out at 30.4% and the EC50 was found to be 0.236 µM.
Take `COC(=O)c1ccccc1S(=O)(=O)N(CCc1ccccc1F)C[C@H]1CCC2=Cc3c(cnn3-c3ccc(F)cc3)C[C@@]21C` [Example 189, methyl 2-[([2-(2-fluorophenyl)ethyl]{[(4αR,5S)-1-(4-fluorophenyl)-4α-methyl-1,4,4α,5,6,7-hexahydrocyclopenta[f]indazol-5-yl]methyl}amino)sulfonyl]benzoate]: the Emax is 65.3% and the EC50 was determined as 0.152 µM.
